According to patent publication US6919345B2, “Sulfonate substituted pyrazol pyridine derivatives” (Bayer Aktiengesellschaft, priority 2001, dated 2005):

test system: rabbit aorta rings; assay: Vasorelaxant effect in vitro (phenylephrine-contracted rabbit aorta rings); details: Oryctolagus cuniculus; concentration reducing height of phenylephrine-induced contraction of rabbit aorta rings by 50%; 0.1% DMSO
Description: Rabbits are stunned by a blow to the back of the neck and are exsanguinated. The aorta is removed, freed of adherent tissue, divided into rings 1.5 mm wide and put singly under tension in 5 ml organ baths containing carbogen-gassed Krebs-Henseleit solution at 37° C. with the following composition (mM): NaCl: 119; KCl: 4.8; CaCl2×2 H2O: 1; MgSO4×7 H2O; 1.4; KH2PO4: 1.2; NaHCO3: 25; glucose: 10. The force of contraction is detected with Statham UC2 cells, amplified and digitized via A/D converters (DAS-1802 HC, Keithley Instruments Munich) and recorded in parallel on chart recorders. A contraction is generated by adding phenylephrine to the bath cumulatively in increasing concentration. After several control cycles, the substance to be investigated is investigated in each further run in increasing dosage in each case, and the height of the contraction is compared with the height of the contraction reached in the last preceding run. The concentration necessary to reduce the height of the control value by 50% (IC50) is calculated from this. The standard application volume is 5 μl, and the DMSO content in the bath solution corresponds to 0.1%.

SMILES	IC50 [nM]
Nc1nc(-c2nn(Cc3ccccc3F)c3ncccc23)ncc1OS(=O)(=O)CCl [Example 1, 4-Amino-2-[1-(2-fluorobenzyl)-1H-pyrazolo[3,4-b]pyridin-3-yl]-5-pyrimidinyl chloromethanesulfonate]	700
CCS(=O)(=O)Oc1cnc(-c2nn(Cc3ccccc3F)c3ncccc23)nc1N [Example 3]	300
CS(=O)(=O)Oc1cnc(-c2nn(Cc3ccccc3F)c3ncccc23)nc1N [Example 2]	580

Second part, the compound after the results:

IC50 [nM]	SMILES
710	Nc1nc(-c2nn(Cc3ccccc3F)c3ncccc23)ncc1OS(=O)(=O)C1CC1 [Example 4]
440	Nc1nc(-c2nn(Cc3ccccc3F)c3ncccc23)ncc1OS(=O)(=O)CCCC(F)(F)F [Example 7]
2020	Nc1nc(-c2nn(Cc3ccccc3F)c3ncccc23)ncc1OS(=O)(=O)c1ccccc1 [Example 10]
520	CC(C)S(=O)(=O)Oc1cnc(-c2nn(Cc3ccccc3F)c3ncccc23)nc1N [Example 5]
